The text below walks through data of article PMC5719405, “Sex-related pharmacokinetic differences and mechanisms of metapristone (RU486 metabolite)” (Scientific Reports, 2017).

A short description of data set [1]: In vitro microsomal metabolism of metapristone. The class given is in vitro ADME, rat. Particulars: for metapristone remained: 2 h; for degradation of metapristone: 37 °C, 1 h. As to the method:
The microsomal assay was similar to that described previously. Briefly, metapristone (6, 9, 13.5 µM) was incubated with male and female at liver microsomes, respectively, in an NADPH-generating system containing 1 mM NADP, 10 mM glucose-6-phosphate, 1 U/mL glucose-6-phosphate dehydrogenase and 4 mM MgCl2 in 100 mM potassium phosphate buffer (pH 7.4). Reaction mixtures were prepared in duplicate and were pre-incubated for 5 min at 37 °C. The actions were then initiated by the addition of NADPH solution. The final volume of each reaction mixture was 200 µL. Negative control reactions were prepared by incubating mixtures that excluded metapristone from the mixture. For negative control incubation where microsomes were excluded, they were added back to the reaction mixture after quenching with methanol. Samples were removed at 0, 40, 60, 80,100, 120 and 150 min, and vortex-mixed with cold ethyl acetate to stop the reaction. After centrifugation, a portion of each resulting supernatant was analyzed by mass spectrometry for unchanged metapristone.

A further data set deals with T1, human CYP1A2 (Homo sapiens, UniProt P05177).
T1 construct: made in house; host or cells: insect cells
T1 sequence (P05177 1-516): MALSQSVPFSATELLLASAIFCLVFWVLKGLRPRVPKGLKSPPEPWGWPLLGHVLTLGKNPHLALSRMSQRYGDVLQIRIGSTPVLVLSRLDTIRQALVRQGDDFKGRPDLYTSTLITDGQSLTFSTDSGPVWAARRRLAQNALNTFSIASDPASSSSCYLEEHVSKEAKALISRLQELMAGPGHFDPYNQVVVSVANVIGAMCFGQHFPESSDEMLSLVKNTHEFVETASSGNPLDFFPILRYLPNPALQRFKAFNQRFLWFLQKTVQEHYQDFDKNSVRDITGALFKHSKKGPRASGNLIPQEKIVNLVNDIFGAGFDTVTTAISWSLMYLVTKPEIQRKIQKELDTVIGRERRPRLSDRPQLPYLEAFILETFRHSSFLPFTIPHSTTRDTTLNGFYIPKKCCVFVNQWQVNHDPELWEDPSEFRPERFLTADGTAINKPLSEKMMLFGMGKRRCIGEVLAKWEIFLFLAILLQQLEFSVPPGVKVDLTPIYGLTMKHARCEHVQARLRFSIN
Nature of the data set: Metapristone metabolism by cDNA-expressed recombinant human CYP1A2. The class given is in vitro ADME. Particulars: 9 µM. On the procedure:
To identify CYP450 isomers which were responsible for the sex different metabolism of metapristone, both CYP450 inhibitors and cDNA-expressed recombinant human CYPs were used[11]. […] The reactions of the control groups with control rat liver microsomes (heated to 80 °C for 5 min to inactivate enzymes) to inactivate enzymes or without NADPH were also included. […] The cDNA-expressed recombinant human CYPs were prepared from insect cells transfected with cDNAs encoding for human CYP1A2 or CYP3A4. […] Each reaction was then started by the addition of metapristone (9 µM) with subsequent mixing of each sample by inversion. […] Metapristone were identified by the LC/MS/MS method. Peak areas formed were used for quantitative analyses. Control incubation mixtures included mixtures without inhibitors, and mixtures with untransfected insect cell microsomes used as microsomal control, and mixtures that contained methanol instead of inhibitor (methanol control). Quantitative analyses were performed by comparing the peak areas of the inhibition reactions to their respective methanol controls. The total organic solvent content of the in vitro reaction mixtures was less than 2%.

For another data set, the system named is CYP1A2. The experiment in a line: Western blotting of rat liver CYP1A2 after 7-day oral metapristone. The class given is in vivo. On the procedure:
(§1) To further confirm CYP1A2 and CYP3A4 are the primary CYP isoforms that metabolize metapristone, we administered oral metapristone (22.5 and 45 mg/kg/day for 7 days) to male and female rats, respectively, and measured the activity of liver CYP1A2 and CYP3A4 by using the western blotting assay. We selected western blot staining density from the controls as the basis (100%) to compare changes in CYP1A2 and CYP3A4 activity after metapristone treatment.
(§2) The total microsomal protein was extracted from rat livers prepared by diluting liver microsomal suspension with 1 volume of immunoprecipitation assay lysis buffer (150 mM NaCl, 1% NP-40, 0.5% sodium deoxy-cholic acid, 0.1% SDS, and 50 mM Tris-Cl, pH 7.5) for 15 min and then centrifuged at 13,000 rpm 4 °C for 10 min. Aliquots containing 20 µg of protein were separated by SDS-PAGE on a 10% gradient gel (Invitrogen, USA) and transferred to a PVDF membrane that was blocked with 5% non-fat dry milk in Tris-buffered saline with Tween 20 (200 mM Tris–HCl, 1.37 M NaCl, 0.1% Tween 20, pH 7.6) for 1 h. The membrane was then incubated with rabbit anti-rat CYP1A2 polyclonal antibody (1:2000 dilution), rabbit anti-rat CYP3A4 polyclonal antibody (1:1000 dilution) and glyceraldehyde-3-phosphate dehydrogenase (GAPDH) antibody (1:2000 dilution), overnight at 4 °C. After rinsing five times with buffer TBST at room temperature, the membrane was incubated with horseradish peroxidase (HRP)-labeled anti-rabbit immunoglobulin G (IgG) anti-body (Santa Cruz Biotechnology, USA). The immunoreactive bands were visualized using an enhanced chemiluminescence detection system (ChemiDoc™XRS + , Bio-Rad, Hercules, CA, USA) and quantified by using densitometry Image J 1.41 software.

For a further data set, the system named is CYP3A4. Nature of the data set: Western blotting of rat liver CYP3A4 after 7-day oral metapristone. The class given is in vivo. On the procedure: as §1, §2
A general note: Immunoblotting shows a protein as a band on a membrane.

For data set [2] the following is noted: rats, 12.5, 50 and 200 mg/kg/day; only occurred at 200 mg/kg/day; cited from earlier work.
The mark [3] stands for this setting: female rats, 22.5 mg/kg/day p.o. for 7 days.
[4] abbreviates: female rats, 45 mg/kg/day p.o. for 7 days.
[5] abbreviates: male rats, 22.5 mg/kg/day p.o. for 7 days.
The mark [6] stands for this setting: male rats, 45 mg/kg/day p.o. for 7 days.

Molecules are shown by their SMILES.

As to `CC#C[C@]1(O)CC[C@H]2[C@@H]3CCC4=CC(=O)CCC4=C3[C@@H](c3ccc(NC)cc3)C[C@@]21C` [metapristone, N-monodemethyl mifepristone], the metapristone remained is given as 21.9% in data set [1] (female rat liver microsomes, 6 µM); 27.2% in data set [1] (female rat liver microsomes, 9 µM); 37.3% in data set [1] (female rat liver microsomes, 13.5 µM); 10.2% in data set [1] (male rat liver microsomes, 6 µM); 14.2% in data set [1] (male rat liver microsomes, 9 µM); 29.6% in data set [1] (male rat liver microsomes, 13.5 µM). The metapristone remained on human CYP1A2 (120 min incubation with CYP1A2, absence of inhibitor) is 47.9%. Besides, the degradation of metapristone in data set [1] (female rat liver microsomes, 6, 9 and 13.5 µM) is 35.1–48.9%; in data set [1] (male rat liver microsomes, 6, 9 and 13.5 µM) it was 47.4–67.6%. For the same compound, on human CYP1A2 (120 min incubation with CYP1A2, plus α-naphthoflavone 10 µM), the metapristone survived came out at 89.9%. Also, the “CYP1A2 western blot staining density relative to controls (100%)” value is recorded as 120 ± 16% in the data set on CYP1A2 (setting [3]), 147 ± 21% with CYP1A2 (setting [4]), 156 ± 19% in the data set on CYP1A2 (setting [5]) and 163 ± 12% in the data set on CYP1A2 (setting [6]). Further, the “CYP3A4 western blot staining density relative to controls (100%)” value in the data set with CYP3A4 (setting [3]) is on record as 107 ± 13%; with CYP3A4 (setting [4]) it was 128 ± 12%; in the data set with CYP3A4 (setting [5]), 115 ± 14%; in the data set with CYP3A4 (setting [6]), 153 ± 17%. For the same compound, the “hepatotoxicity after thirty-day oral administration” value in data set [2] was “reversible hepatotoxicity”.
